Measurements as given in patent US20100256041A1, “Conjugate Molecule Compounds With Enhanced Cell Uptake Activity” (priority 2004, published 2010).
“And” between values parts separate entries of the source, which are not always exact repeats. Identical values can stand only once. Like-named read-outs stand apart in the source and are kept apart here. Square brackets hold non-standard residues; d marks the D form.

Tests used:
[1] = tested on: SiHa (human cervix squamous carcinoma cell line); assay: MTT cell survival assay, 96 h treatment (Example 2, oxaliplatin conjugates); assay type: cell-based; settings: SiHa cells, Example 2, triplicate
Description: (§1) Effects of a treatment with increasing concentrations of a conjugate molecule of the invention (D-Tat-oxaliplatin) on the survival of MCF-7 (human breast adenocarcinoma cell line) and SiHa (human cervix squamous carcinoma cell line) was determined. The effects of D-Tat-oxaliplatin was compared to the conjugate L-Tat-oxaliplatin and to two unconjugated anti-cancer drugs (Oxaliplatin and Cisplatin). Cells of each cell line (10′000 cells per well) were plated into 96 well plates (200 μl total volume of MEM supplemented with 10% FBS, 1% L-glutamine, 1% Na-pyruvate, 1% non-essential amino acids for MCF-7 and of MEM/Earle's supplemented with 10% FBS, 1% Na-pyruvate, 1% non-essential amino acids for SiHa cells). 6 to10 different concentrations for each test substance were tested. The control cells are non-treated. Cells were incubated at 37° C. for 24 h before treatment with the test substance. Each experiment was carried in triplicate. Cell incubation after treatment was performed for 96 hours at 37° C. The effects of the test molecules on the survival of these cell lines (in vitro cytotoxic activity) was measured by the MTT assay. 20 μl of a 5 mg/ml 0.22 μm filtered Thiazolyl Blue Tetrazolium Bromide solution (MTT, Sigma, Ref. No. 88415) in Phosphate Buffered saline (PBS, CHUV) were added to each well and the plate was incubated for 4 hours at 37° C. The supernatant was removed and formazan crystals were dissolved with DMSO (200 μl per well). Absorbancy (OD) was measured in a microplate reader at 595 nm (Expert Plus Reader, Asys Hitech). The IC50 (concentration of the drug inhibiting 50% of the cell growth) for the test substances was calculated using Prism software.

[2] = tested on: MCF-7 (human breast adenocarcinoma cell line); assay: as above; assay type: cell-based; settings: MCF-7 cells, Example 2, triplicate
Description: as §1

[3] = Octanol/water partition (shake-flask, HPLC at 214 nm), water solubility; settings: 1 mM, 24 hours equilibration at room temperature, FIG. 10
MRC-5 (human fibroblast) = assay: MTT cell survival assay, 96 h treatment (Example 1); assay type: cell-based; settings: MRC-5 fibroblast cells
Description: Effects of a treatment with increasing concentrations of a conjugate molecule of the invention (Cisplatin-D-TAT) and an unconjugated anti-cancer drug (Cisplatin) on the survival of IGROV-1 (ovary), IGROV-1/CDDP (ovary, cisplatin-resistant cell line), MCF-7 (breast), and MRC-5 (human fibroblast) (three human tumor cell lines and one human fibroblast cell line) was determined. Cells of each cell line were plated out (200 μl final volume of RPMI 1640 supplemeted with 10% FBS) in 96 well plates (5 different concentrations for each test substance, one control experiment) 5,000 to 40,000 cells per well (depending on the doubling time for each cell line) were incubated at 37° C. for 24 h before treatment with the test substances. Each experiment was carried 4×. Cell incubation after treatment was performed for 96 h at 37° C. The effects of Cisplatin-D-TAT and Cisplatin on the survival of these cell lines (in vitro cytotoxic activity) were measured by using an MTT assay. 20 μl of a 5 mg/ml solution 0.22 μl filtered tetrazolium reagent (MTT, Ref. M2003, Sigma) in Phosphate Buffered Saline (PBS, Ref BE17-517Q, Cambrex) were aded in each well. […] Absorbancy (OD) was determined in each well on a single wavelength spectrophotometer plate reader at 570 nm (Multiskan, Labsystem, Helsinki, Finland) Data were collected with Genesis software (Labsystem, Helsinki, Finland). […]

[4] = tested on: SiHa (humon cervix squamous carcinoma cell line); assay: cells; assay type: cell-based, human
Description: (§2) Effects of a treatment with increasing concentrations of a conjugate molecule of the invention (D-Tat-chlorambucil) on the survival of MCF-7 (human breast adenocarcinoma cell line) and SiHa (humon cervix squamous carcinoma cell line) was determined. The effects of D-Tat-chlorambucil was compared to the conjugate L-Tat-chlorambucil and to two unconjugated anti-cancer drugs (Chlorambucil and Cisplatin). Cells of each cell line (10′000 cells per well) were plated into 96 well plates (200 μtotal volume of MEM supplemented with 10% FBS, 1% L-glutamine, 1% Na-pyruvate, 1% non-essential amino acids for MCF-7 and of MEM/Earle's supplemented with 10% FBS, 1% Na-pyruvate, 1% non-essential amino acids for SiHa cells). 6 to 10 different concentrations for each test substance were tested. The control cells are non-treated. Cells were incubated at 37° C. for 24 h before treatment with the test substance. Each experiment was carried in triplicate. Cell incubation after treatment was performed for 96 hours at 37° C. The effects of the test molecules on the survival of these cell lines (in vitro cytotoxic activity) was measured by the MTT assay. 20 μl of a 5 mg/ml 0.22 μm filtered Thiazolyl Blue Tetrazolium Bromide solution (MTT, Sigma, Ref. No. 88415) in Phosphate Buffered saline (PBS, CHUV) were added to each well and the plate was incubated for 4 hours at 37° C. The supernatant was removed and formazan crystals were dissolved with DMSO (200 μl per well). Absorbancy (OD) was measured in a microplate reader at 595 nm
(§3) (Expert Plus Reader, Asys Hitech). The IC50 (concentration of the drug inhibiting 50% of the cell growth) for the test substances was calculated using Prism software.

[5] = tested on: IGROV-1/CDDP (ovary, cisplatin-resistant cell line); assay: MTT cell survival assay, 96 h treatment (Example 1); assay type: cell-based, human; settings: for IC50: IGROV-1/CDDP cisplatin-resistant cells, MTT, 96 h, mean of four measurements; for resistance index of IGROV-1/CDDP compared to parental IGROV-1 cell line: approximate; for Resistance Index of IGROV-1/CDDP versus IGROV-1 cell line: ratio of IC50 IGROV-1/CDDP to IGROV-1
Description: (§4) Effects of a treatment with increasing concentrations of a conjugate molecule of the invention (Cisplatin-D-TAT) and an unconjugated anti-cancer drug (Cisplatin) on the survival of IGROV-1 (ovary), IGROV-1/CDDP (ovary, cisplatin-resistant cell line), MCF-7 (breast), and MRC-5 (human fibroblast) (three human tumor cell lines and one human fibroblast cell line) was determined. Cells of each cell line were plated out (200 μl final volume of RPMI 1640 supplemeted with 10% FBS) in 96 well plates (5 different concentrations for each test substance, one control experiment) 5,000 to 40,000 cells per well (depending on the doubling time for each cell line) were incubated at 37° C. for 24 h before treatment with the test substances. Each experiment was carried 4×. Cell incubation after treatment was performed for 96 h at 37° C. The effects of Cisplatin-D-TAT and Cisplatin on the survival of these cell lines (in vitro cytotoxic activity) were measured by using an MTT assay. 20 μl of a 5 mg/ml solution 0.22 μl filtered tetrazolium reagent (MTT, Ref. M2003, Sigma) in Phosphate Buffered Saline (PBS, Ref BE17-517Q, Cambrex) were aded in each well. Culture plates were incubated for 4 h at 37° C. The resulting supernatant was removed and formazan crystals were dissolved with 200 μl of DMSO per well. Absorbancy (OD) was determined in each well on a single wavelength spectrophotometer plate reader at 570 nm (Multiskan, Labsystem, Helsinki, Finland) Data were collected with Genesis software (Labsystem, Helsinki, Finland). IC50 (concentration of the drug inhibiting 50% of the cell growth) for the test substances was calculated for each cell line after plotting. Control cells were treated with vehicle.

IGROV-1 (ovary) = assay: as above; assay type: cell-based, human; settings: IGROV-1 cells, mean of four measurements
Description: as §4

MCF-7 (breast) = assay: as above; assay type: cell-based, human; settings: MCF-7 cells
Description: as §4

[6] = tested on: MCF-7 (human breast adenocarcinoma cell line); assay: cells; assay type: cell-based
Description: as §2, §3

O=C(O)C(=O)O.[NH-][C@@H]1CCCC[C@H]1[NH-].[Pt+2] [oxaliplatin]
IC50 [1]: 11.1 µM | IC50 [2]: 1.5 µM

COc1cccc2c1C(=O)c1c(O)c3c(c(O)c1C2=O)C[C@@](O)(C(=O)CO)C[C@@H]3O[C@H]1C[C@H](N)[C@H](O)[C@H](C)O1 [doxorubicine]
water solubility (compound partitioned in water, octanol/water) [3]: almost perfectly soluble in water

CC(C)(C)NC(=O)[C@@H]1C[C@@H]2CCCC[C@@H]2CN1C[C@@H](O)[C@H](Cc1ccccc1)NC(=O)[C@H](CC(N)=O)NC(=O)c1ccc2ccccc2n1 [saquinavir]
water solubility (compound partitioned in water, octanol/water) [3]: only partially soluble in water

N.N.[Cl][Pt][Cl] [Cisplatin, cis-diamindichloroplatin (II)]
IC50 (MRC-5 (human fibroblast)): 4.88 µM | IC50 ([4]; SiHa cells, MTT, 96 h, Example 3, triplicate, read-out: IC50): 7 µM and 7.03 µM | IC50 [5]: 52.3 µM | resistance index of IGROV-1/CDDP compared to parental IGROV-1 cell line [5]: approximately 40 fold | Resistance Index of IGROV-1/CDDP versus IGROV-1 cell line [5]: 43.6 | IC50 (IGROV-1 (ovary)): 1.2 µM | IC50 (MCF-7 (breast)): 2.68 µM | IC50 ([6]; MCF-7 cells, MTT, 96 h, Example 3, triplicate, read-out: IC50): 7 µM and 7.96 µM | IC50 [1]: 11.1 µM | IC50 [2]: 9.1 µM

Cisplatin-D-TAT (H-[dM]GG[dR][dR][dR][dQ][dR][dR][dK][dK][dR]-NH2; also: cisplatin conjugate)
IC50 (MRC-5 (human fibroblast)): 20.6 µM | IC50 [5]: 35.3 µM | resistance index of IGROV-1/CDDP compared to parental IGROV-1 cell line [5]: approximately two | Resistance Index of IGROV-1/CDDP versus IGROV-1 cell line [5]: 1.9 | IC50 (IGROV-1 (ovary)): 18.4 µM | IC50 (MCF-7 (breast)): 4.89 µM

O=C(O)CCCc1ccc(N(CCCl)CCCl)cc1 [chlorambucil]
IC50 ([4]; Homo sapiens, SiHa): > 1000 µM | IC50 ([4]; Homo sapiens, SiHa, 96 h): > 1000 µM | IC50 ([6]; Homo sapiens, MCF7): > 1000 µM | IC50 ([6]; Homo sapiens, MCF7, 96 h): > 1000 µM | water solubility (compound partitioned in water, octanol/water) [3]: very low water solubility
